From patent US12428406B2 (PMV Pharmaceuticals, Inc., priority 2019, dated 2025) come the findings set out here.

T1 sequence (P04637 94-312, change not shown): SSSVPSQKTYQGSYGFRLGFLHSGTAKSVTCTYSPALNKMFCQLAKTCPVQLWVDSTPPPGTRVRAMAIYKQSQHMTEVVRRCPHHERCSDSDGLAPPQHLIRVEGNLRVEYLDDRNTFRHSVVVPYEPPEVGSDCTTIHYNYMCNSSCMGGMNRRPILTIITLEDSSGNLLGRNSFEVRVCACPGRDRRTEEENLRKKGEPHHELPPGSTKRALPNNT

This assay addresses T1, p53 Y220C (Homo sapiens, UniProt P04637, Y220C).
T1 construct: The recombinant protein was a truncation mutant containing only amino acids 94-312 of p53; made in house; host or cells: E. coli
As to the kind of experiment: In vitro DNA binding activity assay (HTRF / TR-FRET): stabilization of p53 Y220C and increase of its DNA binding activity. It counts as biochemical. The conditions noted are these: recombinant His-tagged p53 Y220C DNA binding domain (aa 94-312), biotin-labeled consensus DNA, incubated at 27° C. or 29° C. for 60 min. In short, it runs like this:
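Compounds from 4.5 mM DMSO stocks, 3-fold serial dilutions; room-temperature incubations of 15 and 20 min. SC150 = concentration raising DNA binding by 50% over no-compound control.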
As for `CS(=O)(=O)c1ccc(NCC#Cc2cc3c(N[C@H]4CC[C@H](N5CCC6(CC5)COC6)CC4)cccc3n2CC(F)(F)F)c(OCF)c1` [Compound 391A, 2-(3-{[2-(fluoro-methoxy)-4-methane-sulfonylphenyl]amino}prop-1-yn-1-yl)-N-[(1R,4R)-4-(2-oxa-7-azaspiro[3.5]nonan-7-yl}cyclohexyl]-1-(2,2,2-trifluoroethyl)-1H-indol-4-amine], the “SC150 (concentration of the compound required to increase the DNA binding activity by 50%)” value is on record as “+ (+ = 0 μM ≤ SC150 < 0.05 μM)”.
As to `CCOc1cc(S(C)(=O)=O)ccc1NCC#Cc1cc2c(N[C@H]3CC[C@H](N4CCC5(CC4)COC5)CC3)cccc2n1CC(F)(F)F` [Compound 393A, N-((1R,4R)-4-(2-oxa-7-azaspiro[3.5]nonan-7-yl)cyclohexyl)-2-(3-((2-ethoxy-4-(methylsulfonyl)phenyl)amino)prop-1-yn-1-yl)-1-(2,2,2-trifluoroethyl)-1H-indol-4-amine], the “SC150 (concentration of the compound required to increase the DNA binding activity by 50%)” value was “+ (+ = 0 μM ≤ SC150 < 0.05 μM)”.
To `CNS(=O)(=O)c1ccc(NCC#Cc2cc3c(N[C@H]4CC[C@H](N5CCC6(CC5)COC6)CC4)cccc3n2CC(F)(F)F)c(OC)c1` [Compound 395A, 3-methoxy-N-methyl-4-{[3-(4-{[(1R,4R)-4-{2-oxa-7-azaspiro[3.5]nonan-7-yl}cyclohexyl]amino}-1-(2,2,2-trifluoroethyl)-1H-indol-2-yl)prop-2-yn-1-yl]amino}benzene-1-sulfonamide] belongs “+ (+ = 0 μM ≤ SC150 < 0.05 μM)”; to `COc1cc(S(C)(=O)=O)ccc1NCC#Cc1cc2c(N[C@H]3CC[C@H](N4CC5CC(C4)O5)CC3)cccc2n1CC(F)(F)F` [Compound 398A, 2-{3-[(4-methanesulfonyl-2-methoxyphenyl)amino]prop-1-yn-1-yl}-N-[(1R,4R)-4-{6-oxa-3-azabicyclo[3.1.1]heptan-3-yl}cyclohexyl]-1-(2,2,2-trifluoroethyl)-1H-indol-4-amine], “+ (+ = 0 μM ≤ SC150 < 0.05 μM)”.
To `COc1cc(S(C)(=O)=O)ccc1NCC#Cc1cc2c(N[C@H]3CC[C@@H](N4CC5CC(C4)O5)CC3)cccc2n1CC(F)(F)F` [Compound 399A, 2-{3-[(4-methanesulfonyl-2-methoxyphenyl)amino]prop-1-yn-1-yl}-N-[(1S,4S)-4-{6-oxa-3-azabicyclo[3.1.1]heptan-3-yl}cyclohexyl]-1-(2,2,2-trifluoroethyl)-1H-indol-4-amine] belongs “+ (+ = 0 μM ≤ SC150 < 0.05 μM)”; to `COc1cc(S(N)(=O)=O)ccc1NCC#Cc1cc2c(N[C@H]3CC[C@H](N4CC5CC(C4)O5)CC3)cccc2n1CC(F)(F)F` [Compound 400A, 3-methoxy-4-{[3-(4-{[(1R,4R)-4-{6-oxa-3-azabicyclo[3.1.1]heptan-3-yl}cyclohexyl]amino}-1-(2,2,2-trifluoroethyl)-1H-indol-2-yl)prop-2-yn-1-yl]amino}benzene-1-sulfonamide], “+ (+ = 0 μM ≤ SC150 < 0.05 μM)”; to `COc1cc(S(N)(=O)=O)ccc1NCC#Cc1cc2c(N[C@H]3CC[C@@H](N4CC5CC(C4)O5)CC3)cccc2n1CC(F)(F)F` [Compound 401A, 3-methoxy-4-{[3-(4-{[(1S,4S)-4-{6-oxa-3-azabicyclo[3.1.1]heptan-3-yl}cyclohexyl]amino}-1-(2,2,2-trifluoroethyl)-1H-indol-2-yl)prop-2-yn-1-yl]amino}benzene-1-sulfonamide], “++ (++ = 0.05 μM ≤ SC150 < 0.1 μM)”.
To `CNC(=O)c1ccc(NCC#Cc2cc3c(N[C@H]4CC[C@H](N5CC6CC(C5)O6)CC4)cccc3n2CC(F)(F)F)c(OC)c1` [Compound 402A, 3-methoxy-N-methyl-4-{[3-(4-{[(1R,4R)-4-{6-oxa-3-azabicyclo[3.1.1]heptan-3-yl}cyclohexyl]amino}-1-(2,2,2-trifluoroethyl)-1H-indol-2-yl)prop-2-yn-1-yl]amino}benzamide] belongs “+ (+ = 0 μM ≤ SC150 < 0.05 μM)”; to `CNC(=O)c1ccc(NCC#Cc2cc3c(N[C@H]4CC[C@@H](N5CC6CC(C5)O6)CC4)cccc3n2CC(F)(F)F)c(OC)c1` [Compound 403A, 3-methoxy-N-methyl-4-{[3-(4-{[(1S,4S)-4-{6-oxa-3-azabicyclo[3.1.1]heptan-3-yl}cyclohexyl]amino}-1-(2,2,2-trifluoroethyl)-1H-indol-2-yl)prop-2-yn-1-yl]amino}benzamide], “++ (++ = 0.05 μM ≤ SC150 < 0.1 μM)”; to `CCOc1cc(S(C)(=O)=O)ccc1NCC#Cc1cc2c(N[C@H]3CC[C@H](N4CC5CC(C4)O5)CC3)cccc2n1CC(F)(F)F` [Compound 404A, 2-{3-[(2-ethoxy-4-methanesulfonyl-phenyl)amino]prop-1-yn-1-yl}-N-[(1R,4R)-4-{6-oxa-3-azabicyclo[3.1.1]heptan-3-yl}cyclohexyl]-1-(2,2,2-trifluoroethyl)-1H-indol-4-amine], “+ (+ = 0 μM ≤ SC150 < 0.05 μM)”.
`CCOc1cc(S(C)(=O)=O)ccc1NCC#Cc1cc2c(N[C@H]3CC[C@@H](N4CC5CC(C4)O5)CC3)cccc2n1CC(F)(F)F` [Compound 405A, 2-{3-[(2-ethoxy-4-mcthanesulfonyl-phenyl)amino]prop-1-yn-1-yl}-N-[(1S,4S)-4-{6-oxa-3-azabicyclo[3.1.1]heptan-3-yl}cyclohexyl]-1-(2,2,2-trifluoroethyl)-1H-indol-4-amine]: the “SC150 (concentration of the compound required to increase the DNA binding activity by 50%)” value was “+ (+ = 0 μM ≤ SC150 < 0.05 μM)”.
The same measure for `CCNC(=O)c1ccc(NCC#Cc2cc3c(N[C@H]4CC[C@H](N5CC6CC(C5)O6)CC4)cccc3n2CC(F)(F)F)c(OC)c1` [Compound 406A, N-ethyl-3-methoxy-4-{[3-(4-{[(1R,4R)-4-{6-oxa-3-azabicyclo[3.1.1]heptan-3-yl}cyclohexyl]amino}-1-(2,2,2-trifluoroethyl)-1H-indol-2-yl)prop-2-yn-1-yl]amino}benzamide]: “+ (+ = 0 μM ≤ SC150 < 0.05 μM)”; for `CS(=O)(=O)c1ccc(NCC#Cc2cc3c(N[C@H]4CC[C@H](N5CC6CC(C5)O6)CC4)cccc3n2CC(F)(F)F)c(OCC#N)c1` [Compound 407A, 2-(5-methanesulfonyl-2-{[3-(4-{[(1R,4R)-4-{6-oxa-3-azabicyclo[3.1.1]heptan-3-yl}cyclohexyl]amino}-1-(2,2,2-trifluoroethyl)-1H-indol-2-yl)prop-2-yn-1-yl]amino}phenoxy)acetonitrile]: “+ (+ = 0 μM ≤ SC150 < 0.05 μM)”; for `CNC(=O)c1ccc(NCC#Cc2cc3c(N[C@H]4CC[C@H](N5CCC6(CCOC6)CC5)CC4)cccc3n2CC(F)(F)F)c(OC)c1` [Compound 409A, 3-methoxy-N-methyl-4-{[3-(4-{[(1R,4R)-4-{2-oxa-8-azaspiro[4.5]decan-8-yl}cyclohexyl]amino}-1-(2,2,2-trifluoroethyl)-1H-indol-2-yl)prop-2-yn-1-yl]amino}benzamide]: “+ (+ = 0 μM ≤ SC150 < 0.05 μM)”.
Consider `COc1cc(S(C)(=O)=O)ccc1NCC#Cc1cc2c(N[C@H]3CC[C@H](N4CCC5(CCOC5)CC4)CC3)cccc2n1CC(F)(F)F` [Compound 410A, 2-{3-[(4-methane-sulfonyl-2-methoxy-phenyl)amino]prop-1-yn-1-yl}-N-[(1R,4R)-4-{2-oxa-8-azaspiro[4.5]decan-8-yl}cyclohexyl]-1-(2,2,2-trifluoroethyl)-1H-indol-4-amine], for which the “SC150 (concentration of the compound required to increase the DNA binding activity by 50%)” value is on record as “+ (+ = 0 μM ≤ SC150 < 0.05 μM)”.
To `COc1cc(S(N)(=O)=O)ccc1NCC#Cc1cc2c(N[C@H]3CC[C@H](N4CCC5(CCOC5)CC4)CC3)cccc2n1CC(F)(F)F` [Compound 411A, 3-methoxy-4-{[3-(4-{[(1R,4R)-4-{2-oxa-8-azaspiro[4.5]decan-8-yl}cyclohexyl]amino}-1-(2,2,2-trifluoroethyl)-1H-indol-2-yl)prop-2-yn-1-yl]amino}benzene-1-sulfonamide] belongs “+ (+ = 0 μM ≤ SC150 < 0.05 μM)”; to `COc1cc(S(C)(=O)=O)ccc1NCC#Cc1cc2c(N[C@H]3CC[C@H](N4CCC5(CCOCC5)CC4)CC3)cccc2n1CC(F)(F)F` [Compound 414A, 2-{3-[(4-methane-sulfonyl-2-methoxy-phenyl)amino]prop-1-yn-1-yl}-N-[(1R,4R)-4-{3-oxa-9-azaspiro[5.5]undecan-9-yl}cyclohexyl]-1-(2,2,2-trifluoroethyl)-1H-indol-4-amine], “+ (+ = 0 μM ≤ SC150 < 0.05 μM)”; to `CNC(=O)c1ccc(NCC#Cc2cc3c(N[C@H]4CC[C@H](N5CCC6(CCOCC6)CC5)CC4)cccc3n2CC(F)(F)F)c(OC)c1` [Compound 416A, 3-methoxy-N-methyl-4-{[3-(4-{[(1R,4R)-4-{3-oxa-9-azaspiro[5.5]undecan-9-yl}cyclohexyl]amino}-1-(2,2,2-trifluoroethyl)-1H-indol-2-yl)prop-2-yn-1-yl]amino}benzamide], “+ (+ = 0 μM ≤ SC150 < 0.05 μM)”.
To `COc1cc(S(N)(=O)=O)ccc1NCC#Cc1cc2c(N[C@H]3CC[C@H](N4CCC5(CCOCC5)CC4)CC3)cccc2n1CC(F)(F)F` [Compound 418A, 3-methoxy-4-{[3-(4-{[(1R,4R)-4-{3-oxa-9-azaspiro[5.5]undecan-9-yl}cyclohexyl]amino}-1-(2,2,2-trifluoroethyl)-1H-indol-2-yl)prop-2-yn-1-yl]amino}benzene-1-sulfonamide] belongs “+ (+ = 0 μM ≤ SC150 < 0.05 μM)”.
